Assay results published in patent US20190062684A1, “Microfluidic System for Reproducing Functional Units of Tissues and Organs In Vitro” (NORTIS, INC., priority 2012, published 2019).

Tested on: vascular-cell tube (engineered from primary human microvascular endothelial cells)

SMILES: O=C(O)c1ccccc1-c1c2cc(F)c(=O)cc-2oc2cc(O)c(F)cc12 [Oregon Green]
- average permeability through the vascular-cell tube wall: 25 ×10⁻⁶ cm/s
